Assay results: patent publication US9000044B2, “Substituted naphthylacetic acids” (Hoffmann-La Roche Inc., priority 2012, dated 2015)

Each compound was assayed against human CRTH2 (Homo sapiens (Human), UniProt Q9Y5Y4) (assay: Calcium Flux Assay Using Fluorometric Imaging Plate Reader (FLIPR)). Conditions: CHO-K1 cells with G-alpha 16 and human CRTH2; inhibition of DK-PGD2 ligand-induced Ca2+ flux.
Format: cell-based
Experimental: Calcium Flux Assay Using Fluorometric Imaging Plate Reader (FLIPR)
Cell Culture Conditions: CHO-K1 cells previously transfected with G-alpha 16 were subsequently transfected with the human CRTH2 receptor and the neomycin resistance gene. Following selection in 800 μg/mL G418 (geneticin), individual clones were assayed for their receptor expression based on staining with an anti human CRTH2 IgG, followed by assaying for their response to 13,14-dihydro-15-keto Prostaglandin D2 (DK-PDG2) (ligand) in the Ca^2+ Flux assay. Positive clones were then cloned by limiting dilution cloning. The transfected cells were cultured in Ham's F-12 medium supplemented with 10% fetal bovine serum, 2 mM glutamine, 100 U/mL penicillin/100 μg/mL streptomycin, 200 μg/mL hygromycin B, and 800 μg/mL G418 (geneticin). Cells were harvested with trypsin-EDTA (trypsin-ethylenediaminetetraacetic acid) and counted using ViaCount® reagent (from Guava Technologies, Inc. which contains two DNA-binding dyes that enable the reagent user to distinguish between viable and non-viable cells). The cell suspension volume was adjusted to 2.5×10^5 cells/mL with complete growth media. Aliquots of 50 μL were dispensed into BD Falcon™ 384 well black/clear microplates (from BD Biosciences, a division of Becton, Dickinson and Company) and the microplates were placed in a 37° C. CO2 incubator overnight. The following day, the microplates were used in the assay.
Loading Buffer containing dye (from the FLIPR® Calcium 3 Assay Kit from Molecular Devices, a division of MDS Analytical Technologies and MDS Inc.) was prepared by dissolving the contents of one bottle into 200 mL Hank's Balanced Salt Solution containing 20 mM HEPES (4-(2-hydroxyethyl)-1-piperazineethanesulfonic acid) and 2.5 mM probenecid. Growth media was removed from the cell plates and 25 μL of Hank's Balanced Salt Solution (HBSS) containing 20 mM HEPES, 0.05% BSA and 2.5 mM probenecid was added to each well followed by 25 μL of diluted dye using a Multidrop dispenser. The plates were then incubated for 1 hour at 37° C.
During the incubation, test compound plates were prepared by adding 90 μL of HBSS/20 mM HEPES/0.005% BSA buffer to the 2 μL of serial diluted compounds. To prepare serial diluted compounds, 20 mM stocks of compounds were dissolved in 100% DMSO. The compound dilution plate was set up as follows: well #1 received 5 μL of compound plus 10 μL of DMSO. Wells 2-10 received 10 μL of DMSO. 5 μL was mixed and transferred from well #1 into well #2. 1:3 serial dilutions were continued out 10 steps. 2 μL of diluted compound was transferred into duplicate wells of a 384 well “assay plate” and then 90 μL of buffer was added.
After incubation, both the cell and “assay plate” plates were brought to the fluorometric imaging plate reader (FLIPR®) and 20 μL of the diluted compounds were transferred to the cell plates by the FLIPR®. Plates were then incubated for 1 hour at room temperature. […] During the assay, fluorescence readings were taken simultaneously from all 384 wells of the cell plate every 1.5 seconds. Five readings were taken to establish a stable baseline, then 20 μL of sample was rapidly (30 μL/sec) and simultaneously added to each well of the cell plate. The fluorescence was continuously monitored before, during and after sample addition for a total elapsed time of 100 seconds. Responses (increase in peak fluorescence) in each well following agonist addition were determined. The initial fluorescence reading from each well, prior to ligand stimulation, was used as a zero baseline value for the data from that well. The responses were expressed as % inhibition of the buffer control.

human CRTH2, sequence (Q9Y5Y4 whole entry): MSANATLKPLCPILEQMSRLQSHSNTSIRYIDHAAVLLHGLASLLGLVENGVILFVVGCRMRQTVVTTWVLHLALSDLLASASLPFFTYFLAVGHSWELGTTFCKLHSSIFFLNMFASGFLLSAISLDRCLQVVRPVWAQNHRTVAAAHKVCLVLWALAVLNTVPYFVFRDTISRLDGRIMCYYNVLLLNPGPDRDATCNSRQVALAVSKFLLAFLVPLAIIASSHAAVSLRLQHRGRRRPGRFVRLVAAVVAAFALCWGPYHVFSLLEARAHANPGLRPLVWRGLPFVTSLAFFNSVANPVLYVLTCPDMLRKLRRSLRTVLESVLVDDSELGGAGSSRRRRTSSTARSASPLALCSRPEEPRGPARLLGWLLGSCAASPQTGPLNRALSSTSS

| SMILES | IC50 |
| --- | --- |
| Cc1c(CC(=O)O)cc2ccc(Cl)cc2c1-c1ccc(S(=O)(=O)Nc2ccc(OC(F)(F)F)cc2)cc1 [Example 30, {6-Chloro-3-methyl-4-[4-(4-trifluoromethoxy-phenylsulfamoyl)-phenyl]-naphthalen-2-yl}-acetic acid] | 34.3 nM |
| Cc1c(Cl)cccc1NS(=O)(=O)c1ccc(-c2c(C)c(CC(=O)O)cc3ccc(Cl)cc23)cc1 [Example 31, {6-Chloro-4-[4-(3-chloro-2-methyl-phenylsulfamoyl)-phenyl]-3-methyl-naphthalen-2-yl}-acetic acid] | 6.7 nM |
| Cc1c(CC(=O)O)cc2ccc(Cl)cc2c1-c1ccc(S(=O)(=O)NCCO)cc1 [Example 56, {6-Chloro-4-[4-(2-hydroxy-ethylsulfamoyl)-phenyl]-3-methyl-naphthalen-2-yl}-acetic acid] | 5.6 nM |
| Cc1c(CC(=O)O)cc2ccc(F)cc2c1-c1ccc(S(=O)(=O)c2ccccc2OC(F)(F)F)cc1 [Example 6, {6-Fluoro-3-methyl-4-[4-(2-trifluoromethoxy-benzenesulfonyl)-phenyl]-naphthalen-2-yl}-acetic acid] | 1 nM |
| Cc1c(CC(=O)O)cc2ccc(F)cc2c1-c1ccc(S(=O)(=O)NC(C)C)cc1 [Example 50, [6-Fluoro-4-(4-isopropylsulfamoyl-phenyl)-3-methyl-naphthalen-2-yl]-acetic acid] | 1.7 nM |
| Cc1c(CC(=O)O)cc2ccc(Cl)cc2c1-c1ccc(S(=O)(=O)c2cc(C(F)(F)F)cc(C(F)(F)F)c2)cc1 [Example 25, {4-[4-(3,5-Bis-trifluoromethyl-benzenesulfonyl)-phenyl]-6-chloro-3-methyl-naphthalen-2-yl}-acetic acid] | 44.7 nM |
| CCN(CC)S(=O)(=O)c1ccc(-c2c(C)c(CC(=O)O)cc3ccc(Cl)cc23)cc1 [Example 35, [6-Chloro-4-(4-diethylsulfamoyl-phenyl)-3-methyl-naphthalen-2-yl]-acetic acid] | 0.5 nM |
| Cc1c(CC(=O)O)cc2ccc(F)cc2c1-c1ccc(S(=O)(=O)N2CCCCC2)cc1 [Example 47, {6-Fluoro-3-methyl-4-[4-(piperidine-1-sulfonyl)-phenyl]-naphthalen-2-yl}-acetic acid] | 4.1 nM |
| Cc1c(CC(=O)O)cc2ccc(F)cc2c1-c1ccc(S(=O)(=O)c2cc(F)cc(F)c2)cc1 [Example 14, {4-[4-(3,5-Difluoro-benzenesulfonyl)-phenyl]-6-fluoro-3-methyl-naphthalen-2-yl}-acetic acid] | 1.6 nM |
| Cc1c(CC(=O)O)cc2ccc(F)cc2c1-c1ccc(S(=O)(=O)NCCO)cc1 [Example 57, {6-Fluoro-4-[4-(2-hydroxy-ethylsulfamoyl)-phenyl]-3-methyl-naphthalen-2-yl}-acetic acid] | 6.1 nM |
| Cc1c(CC(=O)O)cc2ccc(F)cc2c1-c1ccc(S(=O)(=O)c2cc(C(F)(F)F)cc(C(F)(F)F)c2)cc1 [Example 12, {4-[4-(3,5-Bis-trifluoromethyl-benzenesulfonyl)-phenyl]-6-fluoro-3-methyl-naphthalen-2-yl}-acetic acid] | 14 nM |
| Cc1c(CC(=O)O)cc2ccc(F)cc2c1-c1ccc(S(=O)(=O)c2cccc(Cl)c2)cc1 [Example 3, {4-[4-(3-Chloro-benzenesulfonyl)-phenyl]-6-fluoro-3-methyl-naphthalen-2-yl}-acetic acid] | 3.9 nM |
| Cc1c(CC(=O)O)cc2ccc(F)cc2c1-c1ccc(S(=O)(=O)NC2CCCCC2)cc1 [Example 49, [4-(4-Cyclohexylsulfamoyl-phenyl)-6-fluoro-3-methyl-naphthalen-2-yl]-acetic acid] | 1.5 nM |
| Cc1c(CC(=O)O)cc2ccc(F)cc2c1-c1ccc(S(=O)(=O)c2ccccc2C(F)(F)F)cc1 [Example 5, {6-Fluoro-3-methyl-4-[4-(2-trifluoromethyl-benzenesulfonyl)-phenyl]-naphthalen-2-yl}-acetic acid] | 1.3 nM |
| Cc1c(CC(=O)O)cc2ccc(Cl)cc2c1-c1ccc(S(=O)(=O)c2cccc(Cl)c2)cc1 [Example 16] | 8.1 nM |
| Cc1c(CC(=O)O)cc2ccc(F)cc2c1-c1ccc(S(=O)(=O)c2ccc(OC(F)(F)F)cc2)cc1 [Example 7, {6-Fluoro-3-methyl-4-[4-(4-trifluoromethoxy-benzenesulfonyl)-phenyl]-naphthalen-2-yl}-acetic acid] | 15.8 nM |
| Cc1c(CC(=O)O)cc2ccc(Cl)cc2c1-c1ccc(S(=O)(=O)N2CCCCC2)cc1 [Example 34, {6-Chloro-3-methyl-4-[4-(piperidine-1-sulfonyl)-phenyl]-naphthalen-2-yl}-acetic acid] | 0.9 nM |
| Cc1c(CC(=O)O)cc2ccc(F)cc2c1-c1ccc(S(=O)(=O)c2ccc(F)cc2F)cc1 [Example 10, {4-[4-(2,4-Difluoro-benzenesulfonyl)-phenyl]-6-fluoro-3-methyl-naphthalen-2-yl}-acetic acid] | 1.2 nM |
| CCN(CC)S(=O)(=O)c1ccc(-c2c(C)c(CC(=O)O)cc3ccc(F)cc23)cc1 [Example 48, [4-(4-Diethylsulfamoyl-phenyl)-6-fluoro-3-methyl-naphthalen-2-yl]-acetic acid] | 1.8 nM |
| Cc1c(CC(=O)O)cc2ccc(Cl)cc2c1-c1ccc(S(=O)(=O)c2ccccc2OC(F)(F)F)cc1 [Example 19, {6-Chloro-3-methyl-4-[4-(2-trifluoromethoxy-benzenesulfonyl)-phenyl]-naphthalen-2-yl}-acetic acid] | 19.7 nM |
| Cc1ccc(NS(=O)(=O)c2ccc(-c3c(C)c(CC(=O)O)cc4ccc(Cl)cc34)cc2)cc1 [Example 29, [6-Chloro-3-methyl-4-(4-p-tolylsulfamoyl-phenyl)-naphthalen-2-yl]-acetic acid] | 2.7 nM |
| Cc1c(CC(=O)O)cc2ccc(F)cc2c1-c1ccc(S(=O)(=O)c2ccc(Cl)cc2)cc1 [Example 4, {4-[4-(4-Chloro-benzenesulfonyl)-phenyl]-6-fluoro-3-methyl-naphthalen-2-yl}-acetic acid] | 3.2 nM |
| Cc1c(CC(=O)O)cc2ccc(F)cc2c1-c1ccc(S(=O)(=O)c2cc(Cl)cc(Cl)c2)cc1 [Example 13, {4-[4-(3,5-Dichloro-benzenesulfonyl)-phenyl]-6-fluoro-3-methyl-naphthalen-2-yl}-acetic acid] | 5.4 nM |
| Cc1c(CC(=O)O)cc2ccc(F)cc2c1-c1ccc(S(=O)(=O)c2cc(Cl)ccc2Cl)cc1 [Example 9, {4-[4-(2,5-Dichloro-benzenesulfonyl)-phenyl]-6-fluoro-3-methyl-naphthalen-2-yl}-acetic acid] | 3.7 nM |
| Cc1c(CC(=O)O)cc2ccc(Cl)cc2c1-c1ccc(S(=O)(=O)c2ccc(Cl)cc2)cc1 [Example 17, {6-Chloro-4-[4-(4-chloro-benzenesulfonyl)-phenyl]-3-methyl-naphthalen-2-yl}-acetic acid] | 7 nM |
| Cc1c(CC(=O)O)cc2ccc(Cl)cc2c1-c1ccc(S(=O)(=O)NC(C)C)cc1 [Example 37, [6-Chloro-4-(4-isopropylsulfamoyl-phenyl)-3-methyl-naphthalen-2-yl]-acetic acid] | 1.5 nM |
| Cc1c(CC(=O)O)cc2ccc(F)cc2c1-c1ccc(S(=O)(=O)NCc2ccccc2)cc1 [Example 51, [4-(4-Benzylsulfamoyl-phenyl)-6-fluoro-3-methyl-naphthalen-2-yl]-acetic acid] | 0.4 nM |
